According to patent publication US20100022568A1, “ENDOTHELIN RECEPTOR ANTAGONISTS FOR EARLY STAGE IDIOPATHIC PULMONARY FIBROSIS” (Actelion Pharmaceeuticals Ltd., priority 2006, published 2010):
Entries after “also recorded” stand apart in the source; their conditions may differ. Like-named read-outs stand apart in the source and are kept apart here. Square brackets hold non-standard residues; d marks the D form. Peptide text beside a SMILES is read from it.

Tests used:
[1] = tested on: Swiss 3T3 mouse embryonic fibroblasts; assay: cells
Description: Experiments were performed on the mouse embryonic fibroblast cell line Swiss 3T3 (Deutsche Sammlung fur Mikroorganismen und Zellen, DSMZ ACC 173). Cells were starved for 24 h in serum-free medium or medium containing 0.5% serum followed by a 24 h incubation with endothelin-1 at a concentration giving approximately 50% or preferably 80% of its maximal efficacy, in presence either of vehicle or of an antagonist at increasing concentrations or an antagonist in combination with Pirfenidone.
Potential cytotoxic effects are excluded by assessing fibroblast proliferation using the MTS reagent (21). Collagen neo-synthesis by fibroblasts is assessed by measuring ^3H-proline incorporation (22).
Using a concentration of ET-1 of 1 nM (EC80), the below mentioned endothelin receptor antagonists were analyzed for antagonistic activity on ET-1-induced collagen neo-synthesis.

rat mesangial cells = conditions: cited from earlier work
[2] = tested on: various animal models of fibrosis; conditions: cited from earlier work
patients with IPF = assay: BUILD-1 clinical study (phase II/III, placebo-controlled) in IPF patients; type: in vivo, human
Excerpt: BUILD 1 study was a multicentric, randomized, double-blind, placebo-controlled, phase II/III study in IPF patients. […] Treatment failure was defined either as worsening of PFTs or the occurrence of an acute decompensation of IPF. PFT worsening was defined as 2 out of the following 3 criteria • Decrease from baseline ≧10% in Forced vital capacity (FVC) • Decrease from baseline ≧15% in diffusion capacity for carbon monoxide (DLCO). • Decrease from baseline ≧4% in O2 saturation (blood gas) at rest or increase from baseline ≧8 mmHg in alveolar capillary O2 gradient (A-a PO2).
Main inclusion criteria: proven IPF diagnosis <3 years duration, either via a surgical lung biopsy or when not done according to the ATS/ERS consensus criteria (see above). The main inclusion criteria were the presence of FVC ≧50% of predicted value and DLCO ≧30% of predicted value.
The planned treatment period 1 was 12 months. Patients were evaluated at regular interval up to End-of-Period 1 (Month 12 months) and up to the End-of-Study i.e. when the last patient has his/her last visit. The 6MWT and pulmonary function tests were evaluated at each visit.
The analyses were run by a single radiologist who was blinded to the group allocation. Each patient CT was scored for honeycomb as well as ground-glass from the 3 zones of each lung namely upper mid and lower zone. Increment for HC and ground-glass was rounded to the upper 5%.

cell cultures = conditions: cited from earlier work
human fibroblasts = conditions: cited from earlier work
[3] = tested on: norepinephrine-induced aortic remodeling and fibrosis; conditions: cited from earlier work
diabetic rat kidney = conditions: cited from earlier work
[4] = Mus musculus, Swiss-3T3, read-out: IC50 on ET-1-induced collagen neo-synthesis in 3T3 fibroblasts
[5] = patients with surgical lung biopsy, N = 49

Structure (SMILES): COC(c1ccccc1)(c1ccccc1)[C@H](Oc1nc(C)cc(C)n1)C(=O)O [Ambrisentan]
- IC50 [1, 4]: 79 nM

Structure (SMILES): COc1ccccc1Oc1c(NS(=O)(=O)c2ccc(C)cn2)nc(-c2ccncc2)nc1OC [Avosentan]
- IC50 [1, 4]: 330 nM

Structure (SMILES): CC(C)C[C@@H]1NC(=O)[C@@H](C(C)C)NC(=O)[C@@H]2CCCN2C(=O)[C@@H](CC(=O)O)NC(=O)[C@@H](Cc2c[nH]c3ccccc23)NC1=O [BQ-123] (cyclo(L[dW][dD]P[dV]))
- Fibronectin synthesis induced by ET-1 or angiotensin II (rat mesangial cells): decreased

Structure (SMILES): COc1ccccc1Oc1c(NS(=O)(=O)c2ccc(C(C)(C)C)cc2)nc(-c2ncccn2)nc1OCCO [Bosentan]
- Anti-fibrotic activity in vivo [2]: potent anti-fibrotic agent
- Secondary endpoints related to death or disease worsening (patients with IPF; BUILD-1, IPF patients): showed efficacy
- PFT score: occurrence of death or treatment failure at End-of-Period 1 (patients with IPF; all treated (n=71 bosentan), placebo 36.1%): 22.5%
- Primary endpoint: exercise capacity (6MWT) at End-of-Period 1 (patients with IPF; all treated, bosentan target 125 mg b.i.d., 12 months): did not show an effect; also recorded: did not show improvement
- PFTs scores at end of period 1: Improved (number of patients) (patients with IPF; [5]): 2
- PFTs scores at end of period 1: Worsened (number of patients) (patients with IPF; [5]): 6
- PFTs scores at end of period 1: Improved (percent of patients) (patients with IPF; patients with surgical lung biopsy, N = 49, 95% CL 0.5%, 14.0%, p 0.2424): 4.1%
- PFTs scores at end of period 1: Worsened (percent of patients) (patients with IPF; patients with surgical lung biopsy, N = 49, 95% CL 4.6%, 24.8%): 12.2%
- Prevention of clinical worsening in IPF patients with early disease with low or no honeycomb on HRCT lung scans (patients with IPF; post hoc analysis of BUILD 1 HRCT scans): mainly effective
- Collagen synthesis (cell cultures): decreases
- Collagenase expression (cell cultures): increases
- Extracellular matrix deposition (cell cultures): inhibits
- NF-κB expression (cell cultures): reduces
- IC50 [1, 4]: 214 nM
- Effect on ET-1-induced collagen synthesis ([1]; bosentan 1 μM alone, 24 h): reverses ET-1 -induced collagen synthesis to baseline
- Ability to contract a collagen matrix (human fibroblasts; cell cultures): reduced
- Matrix metalloprotease-1 (collagenase) production (human fibroblasts; cell cultures): increased
- Fibroblast proliferation induced by ET-1 (human fibroblasts; human fibroblasts): attenuated

Structure (SMILES): CCCNS(=O)(=O)Nc1ncnc(OCCOc2ncc(Br)cn2)c1-c1ccc(Br)cc1 [Compound 1, propyl-sulfamic acid {5-(4-bromo-phenyl)-6-[2-(5-bromo-pyrimidin-2-yloxy)-ethoxy]-pyrimidine-4-yl}-amide]
- IC50 [1, 4]: 114 nM

Structure (SMILES): COc1cc(OC)nc(O[C@H](C(=O)O)C(OC)(c2ccccc2)c2ccccc2)n1 [Darusentan]
- Accumulation of collagen [3]: decreased
- IC50 [1, 4]: 221 nM

Structure (SMILES): CC[C@H](C)[C@H](NC(=O)[C@H](CC(=O)O)NC(=O)[C@H](CC(C)C)NC(=O)[C@H](Cc1c[nH]cn1)NC(=O)[C@@H]1CSSC[C@H](N)C(=O)N[C@@H](CO)C(=O)N[C@H]2CSSC[C@H](NC(=O)[C@H](CCC(=O)O)NC(=O)[C@H](CCCCN)NC(=O)[C@H](CC(=O)O)NC(=O)[C@H](CCSC)NC(=O)[C@H](CC(C)C)NC(=O)[C@H](CO)NC(=O)[C@H](CO)NC2=O)C(=O)N[C@@H](C(C)C)C(=O)N[C@@H](Cc2ccc(O)cc2)C(=O)N[C@@H](Cc2ccccc2)C(=O)N1)C(=O)N[C@H](C(=O)N[C@@H](Cc1c[nH]c2ccccc12)C(=O)O)[C@@H](C)CC [ET-1, endothelin-1]
- EC50 ([1]; read-out: EC50 (concentration of ET-1 giving 50% of maximal effect) on collagen neo-synthesis, Swiss 3T3 fibroblasts, 24 h incubation): 0.24 nM

Structure (SMILES): CC(C)C[C@H](NC(=O)N1CCCCCC1)C(=O)N[C@H](Cc1cn(C)c2ccccc12)C(=O)N[C@H](Cc1ccccn1)C(=O)O [FR1 39317]
- Expression of collagen, laminin and TGF-β mRNA (diabetic rat kidney): attenuated

Structure (SMILES): Cc1cc2c(cc1CC(=O)c1sccc1S(=O)(=O)Nc1onc(C)c1Cl)OCO2 [Sitaxsentan]
- IC50 [1, 4]: 369 nM

Structure (SMILES): CC(=O)c1cc(C)cc(C)c1NC(=O)c1sccc1S(=O)(=O)Nc1onc(C)c1C [TBC3711]
- IC50 ([1]; read-out: IC50 on ET-1-induced collagen neo-synthesis in 3T3 fibroblasts, ET-1 1 nM (EC80), n >= 2): 59 nM

Structure (SMILES): Cc1ccc(=O)n(-c2ccccc2)c1 [pirfenidone]
- inhibition at 1000 µM ([1]; Mus musculus, Swiss-3T3, 24 h, read-out: Inhibitory effect on collagen neo-synthesis): 55%
